# In patent US20080089957A1, “Monocotyledon plant indications extract compositions, method of preparation and pharmaceutical compositions containing them” (priority 2006, published 2008):
# Structures can show the parent of a compound that is named as a salt.
# Tested on: phosphodiesterases
# Test: Phosphodiesterase inhibitory activity assay, bis(p-nitrophenyl phosphate), 405 nm
# Format: biochemical
# Details: not given
# Experimental: The inhibitory effect on phosphodiesterases was measured spectrophotometrically at 405 nm. A reaction mixture containing 300 μl of 100 mM Tris buffer (pH 8.9), 600 μl of 1 mM Bis(p-nitrophenyl phosphate), 100 μl of sample and 100 μl of enzyme was used for analysis. The absorption increments at 405 nm indicated formation of […] at room temperature, and the initial velocity was calculated. The inhibitory activity of phosphodiesterases was assessed as % inhibition=(1−β/α)×100, where α is the change in absorbance per minute without the sample (A blank with enzyme−A blank without enzyme), and β is the change in absorbance per minute with the sample (A test with enzyme−A test without enzyme).
row,Structure (SMILES),phosphodiesterase inhibitory activity
1,O=C(O)/C=C(\CC(=O)O)C(=O)O [trans-aconitic acid],phosphodiesterase inhibitor

# Target: xanthine oxidase (UniProt P80457)
# Test: Xanthine oxidase inhibitory activity assay, spectrophotometric at 295 nm
# Format: biochemical
# Details: Table 3, triplicate; read-out: IC50 ± SEM
# Experimental: A reaction mixture containing 200 mM sodium pyrophosphate buffer (pH 7.5), 100 mM xanthine and 0.05 unit xanthine oxidase was prepared. […] All determinations were performed in triplicate and samples were tested further to ascertain the corresponding IC50 values.
row,Structure (SMILES),IC50
1,Cc1ccc2[nH]cnc2c1 [5-Methylbenzimidazole],> 200 µM
2,Nc1ncc2[nH]cnc2n1 [2-Aminopurine],> 200 µM
3,"Nc1nc(N)c2[nH]cnc2n1 [2,6-Diaminopurine]",> 200 µM
4,Nc1nc(Cl)c2nc[nH]c2n1 [2-Amino-6-chloropurine],> 200 µM
5,COc1nc(N)nc2nc[nH]c12 [6-O-Methylguanine],> 200 µM
6,"Cc1cc2nc[nH]c2cc1C [5,6-Dimethylbenzimidazole]",> 200 µM

# Same assay, conditions: unit inferred; read-out: IC50 on xanthine oxidase
row,Structure (SMILES),IC50
1,O=[N+]([O-])c1ccc2[nH]cnc2c1 [5-Nitrobenzimidazole nitrate salt],86.84 ± 0.51 µM
2,"Nc1ncnc2[nH]ncc12 [4-Aminopyrazolo[3,4-d]pyrimidine]",30.26 ± 0.23 µM
3,Nc1nc2nc[nH]c2c(=S)[nH]1 [6-Thioguanine],92.42 ± 0.62 µM
